Test results as given in patent US20230183305A1, “KERATIN BD-11, PREPARATION METHOD THEREFOR AND PHARMACEUTICAL COMPOSITION AND USE THEREOF” (INSTITUTE OF MATERIA MEDICA, CHINESE ACADEMY OF MEDICAL …, priority 2019, published 2023).
Where a name gives a salt, the structure may show the parent alone. Marks after values point to notes of the source that are not given here.

How the values were obtained:
[1] = system: ammonia water induced cough in ICR mice; test: Antitussive test, cough induced by ammonia water in mice; type: in vivo, mouse
Description: • Animals: male ICR mice; • Drugs and reagents: dextromethorphan hydrobromide, ammonia water, 0.2% CMC-Na, protein BD-11; • Apparatus: Compressed nebulizer (403T type), balance (XS105DU type).
Experiment grouping: • Solvent control group; • Dextromethorphan 15 mg/kg group; • Protein BD-11, 20 mg/kg group, 50 mg/kg group.
Dextromethorphan and different doses of protein BD-11 (administration volume 10 ml/kg) were given orally in groups, and the solvent control group was given the same volume of distilled water. One hour later, mice were put into a sealed box and atomized 10% ammonia water for 10 seconds, and then observed and recorded the incubation period of cough in mice and the number of coughs in 2 minutes.
Record the time point of oral administration, the time point of atomization experiment, the incubation period of mice cough and the number of coughs within 2 minutes, respectively. The incubation period of cough refers to the number of seconds from the start of the atomization of ammonia to the occurrence of cough. The performance of coughing in mice is based on contraction of their abdominal muscles (breast contraction) and opening their mouths at the same time. Calculate the mean and standard error of each group of data, and use TTEST to compare the model group with other groups, and P<0.05 is considered as a significant difference.
Give dextromethorphan (15 mg/kg) and different doses of protein BD-11 (20 mg/kg, 50 mg/kg) in advance, One hour later, the mice were put into a sealed box and atomized 10% ammonia water for 10 seconds, and then the mice were observed and recorded the incubation period of coughing and the number of coughs within 2 minutes.

[2] = system: PLO-induced epilepsy in ICR mice; test: Pilocarpine (PLO) induced convulsive epilepsy in mice; type: in vivo, mouse; parameters: mortality rate: unit not given here; settings: Diazepam 2 mg/kg
Description: • Animals: male ICR mice; • Drugs: Pilocarpine HCl (PLO, pilocarpine, pilocarpine hydrochloride), Diazepam (diazepam tablets), protein BD-11.
Experiment grouping: • Model group: • Diazepam 2 mg/kg group; • Protein BD-11, 50 mg/kg group, 200 mg/kg group.
The drug was administered once in the afternoon the day before modeling, PLO-225 mg/kg (modeling agent) was injected intraperitoneally 1 hour after the test drug was administered intragastrically on the day of modeling. And positive drug can be administered once 20 minutes before modeling. Observe for 30 minutes after PLO injection.
Observation indicators: ①Seizure situation: the time of seizures from Grade II to Grade IV; (2)the time to death.
(§1) Seizure grade: Refer to Racine grading standard: Grade 0: No response; Grade I: manifested as twitching of facial muscles or the corners of the mouth; Grade II: can nod; Grade III: twitching of one limb; Grade IV: rigidity or body twitching; Grade V: generalized epilepsy (generalized tonic seizures).
Count the number of Grade IV seizures and deaths in each group of mice in the experiment; Grade II, III and IV incubation period. […] Chi-square test was used for statistics of the number of cases. The mean value and standard error of the incubation period were calculated, and TTEST was used to compare the model group with other groups. P<0.05 was considered as a significant difference.

[3] = system: PTZ-induced epilepsy in ICR mice; test: Pentylenetetrazole (PTZ) induced epilepsy in mice; type: in vivo, mouse; settings: Retigabine 60 mg/kg
Description: • Animals: male ICR mice; • Medicines: Pentylenetetrazol (PTZ), Retigabine, Protein BD-11.
Experiment grouping: • Model group; • Retigabine 60 mg/kg group; • Protein BD-11, 50 mg/kg group, 200 mg/kg group;
The drug was administered once in the afternoon the day before modeling, On the day of modeling, PTZ-65 mg/kg (modeling agent) was injected intraperitoneal 1 hour after the test drug was administered intragastrically, and the positive drug can be administered once half an hour before modeling. Continue to observe for 15 minutes after injection of PTZ.
Observation index: ①Seizure situation: the time of seizures from Grade III to […]; ②Death situation
as §1
Count the cases of seizures and deaths in each group of mice in the experiment; Grade III and IV incubation period. The incubation period of mice that have not attacked to Grade IV is recorded as the maximum of 900 seconds. Chi-square test was used for statistics of the number of cases. Calculate the mean and standard error of the incubation period. Use TTEST to compare the model group with other groups, and P<0.05 is considered as a significant difference.

[4] = system: yeast-induced fever model in SD rats; test: Yeast-induced fever model in SD rats; type: in vivo, rat; settings: aspirin 300 mg/kg oral
Description: • Animals: 230-260 grams of male SD rats;; • Drugs: yeast (OXOID LP0021), aspirin (SIGMA A2093), protein BD-11; • Instruments: electronic balance (SARTORIUS BP121S type), electronic clinical thermometer (CITIZEN CT-513W type).
Experiment grouping: • Normal control group; • Model group: yeast fever model; • Positive control group: Aspirin 300 mg/kg group; • Protein BD-11, 10 mg/kg group, 50 mg/kg group.
(§2) Preparation of experimental animals: After the experimental animals adapt to the experimental environment (temperature 22° C.±2° C., relative humidity 50%±2%) for 1 day. Pre-adaptation to measure rectal temperature at 8:00 and 15:00, rats were fasted and water was taken freely 12 h before experiment, and let the animal to empty its feces before measuring the rectal temperature. Apply petroleum jelly to the electronic thermometer probe before each temperature measurement. Insert the rat rectum 2 cm (can be marked at 2 cm to ensure that the depth of each insertion is consistent), and record the body temperature after the reading is stable.
(§3) Subcutaneous injection of dry yeast to replicate rat fever model: The body temperature of the rats was measured before modeling. Qualified rats with a body temperature of 36.2-37.3° C. were selected and randomly divided into groups with 8 rats in each group. After oral administration of aspirin and different doses of protein BD-11, 20% yeast suspension (10 ml/kg) was injected subcutaneously immediately, and the normal control group was injected intraperitoneally with an equal volume of normal saline. The body temperatures of the rats were monitored after 2 hours for a total of 8 hours.
(§4) According to the body temperature measured at each time point on the day of the experiment, calculate the mean, standard deviation and standard error of the body temperature of each group of rats. The data of each group was compared with TTEST, and P<0.05 was considered as a significant difference.
Immediately after oral administration of aspirin (300 mg/kg), protein BD-11 (10 mg/kg, 50 mg/kg), subcutaneous injection of 20% yeast was performed to establish a model. The animal body temperature was monitored at 2 hours, 4 hours, 6 hours, and 8 hours after modeling.

[5] = system: lipopolysaccharide (LPS) induced fever in SD rats; test: Lipopolysaccharide (LPS) induced fever model in SD rats; type: in vivo, rat; settings: aspirin 300 mg/kg oral
Description: • Animals: 230-260 grams of male SD rats; • Drugs: lipopolysaccharide (LPS, SIGMAL-2880), aspirin (SIGMA A2093), protein BD-11; • Instruments: electronic balance (SARTORIUS BP121S type), electronic clinical thermometer (CITIZEN CT-513W type).
Experiment grouping: • Normal control group; • Model group: lipopolysaccharide fever model; • Positive control group: Aspirin 300 mg/kg group; • Protein BD-11, 10 mg/kg group, 50 mg/kg group. Method: the method of intraperitoneal injection of Lipopolysaccharide to replicate rat fever model.
as §2
as §3, with “Intraperitoneal” for “Subcutaneous”, “lipopolysaccharide” for “dry yeast”, “lipopolysaccharide (20 µg/kg, 2” for “20% yeast suspension (10”, “intraperitoneally” for “subcutaneously”
as §4
Immediately after oral administration of aspirin (300 mg/kg), protein BD-11 (10 mg/kg, 50 mg/kg), intraperitoneal injection of 20 µg/kg lipopolysaccharide was performed to establish a model. The animal body temperature was monitored at 2 hours, 4 hours, 6 hours, and 8 hours after modeling.

[6] = system: acetic acid writhing in ICR mice; test: Acetic acid writhing test in ICR mice; type: in vivo, mouse
Description: • Animals: male ICR mice; • Drugs and reagents: aspirin, physiological saline, glacial acetic acid, protein BD-11.
Experiment grouping: • Model group; • Aspirin 300 mg/kg group; • Protein BD-11, 50 mg/kg group, 200 mg/kg group.
One day after the experimental animals adapt to the environment, Aspirin 300 mg/kg, protein BD-11 50 mg/kg, 200 mg/kg were given orally one hour in advance, and the administration volume was 10 ml/kg; Then, 0.6% acetic acid solution was injected intraperitoneally, and the incubation period (seconds) and frequency of writhing in the animal was observed within 15 minutes.
Calculate the mean and standard error of the data in each group. Compared with the model group by TTEST, P<0.05 was considered as statistically different.
One hour after oral administration of aspirin 300 mg/kg and different doses of protein BD-11 (50 mg/kg, 200 mg/kg), 0.6% acetic acid solution was intraperitoneally injected to observe the writhing incubation period and frequency of ICR mice.
0.6% acetic acid solution was injected into the abdominal cavity of mice, which caused deep and large area and long-term painful stimulation, causing the mice to writhe (the abdomen was contracted into an “S” shape, the trunk and hind legs were stretched, the buttocks were raised and creeping). The incubation time to start writhing and times of writhing in mice were used as the pain response indexs to determine whether the test sample had analgesic effect. […] Compared with the model group, P<0.05, which is statistically significant.

[7] = 2, 4, 6 and 8 hours after modeling, P<0.05 vs model group
[8] = Aspirin 300 mg/kg, P<0.05 vs model group

## COc1ccc2c(c1)[C@]13CCCC[C@@H]1[C@H](C2)N(C)CC3 [Dextromethorphan, dextromethorphan hydrobromide, reference compound]
[1]; Dextromethorphan 15 mg/kg oral, 10% ammonia water 10 s, X±SEM, n=9
  Incubation period (cough): 38.4 ± 4.5 s
[1]; Dextromethorphan 15 mg/kg oral, within 2 minutes, X±SEM, n=9
  Number of coughs: 34.0±2.9
[1]; dextromethorphan 15 mg/kg, P<0.05
  Incubation period and number of coughs vs solvent control group: significant improvement

## CN1C(=O)CN=C(c2ccccc2)c2cc(Cl)ccc21 [Diazepam, reference compound]
[2]; PLO 225 mg/kg i.p., 10 mice
  Cases of deaths: 0
  Grade IV seizure rate: 0**
  mortality rate: 0
[2]; PLO 225 mg/kg i.p., 10 mice, 30 min observation
  Cases of Grade IV: 0**
[2]; PLO model, mean±SEM
  Grade II seizure incubation period: 109 ± 8 s
  Grade III seizure incubation period: 182 ± 14 s
[2]; PLO model, mean±SEM, no Grade IV recorded as maximum 1800 s
  Grade IV seizure incubation period: 1800 ± 0 s

## CCOC(=O)Nc1ccc(NCc2ccc(F)cc2)cc1N [Retigabine, reference compound]
[3]; PTZ 65 mg/kg i.p., 10 mice
  Cases of deaths: 0
  Grade IV seizure rate: 20%**
  mortality rate: 0
[3]; PTZ 65 mg/kg i.p., 10 mice, 15 min observation
  Cases of Grade IV: 2**
[3]; PTZ model, mean±SEM
  Grade III seizure incubation period: 83 ± 7 s
[3]; PTZ model, mean±SEM, no Grade IV recorded as maximum 900 s
  Grade IV seizure incubation period: 745 ± 103 s

## CC(=O)Oc1ccccc1C(=O)O [aspirin, reference compound]
[4]; [7]
  Effect on the increase in body temperature of model rats: can effectively inhibit the increase in body temperature
[4]; 2 h after 20% yeast s.c., n=8
  Body temperature 2 hours after modeling: 37.0 ±0.1 °C
[4]; 4 h after 20% yeast s.c., n=8
  Body temperature 4 hours after modeling: 37.0±0.1 °C
[4]; 6 h after 20% yeast s.c., n=8
  Body temperature 6 hours after modeling: 37.0±0.1 °C
[4]; 8 h after 20% yeast s.c., n=8
  Body temperature 8 hours after modeling: 37.0±0.1 °C
[5]; [7]
  Effect on the increase in body temperature of model rats: can effectively inhibit the increase in body temperature
[5]; 2 h after LPS 20 µg/kg i.p., n=8
  Body temperature 2 hours after modeling: 36.8 ± 0.1 °C
[5]; 4 h after LPS 20 µg/kg i.p., n=8
  Body temperature 4 hours after modeling: 36.9### °C
[5]; 6 h after LPS 20 µg/kg i.p., n=8
  Body temperature 6 hours after modeling: 36.8## °C
[5]; 8 h after LPS 20 µg/kg i.p., n=8
  Body temperature 8 hours after modeling: 36.9±0.1 °C
[6]; [8]
  Effect on incubation period of writhing: significantly delay
  Effect on times of writhing: reduce the times of writhing
[6]; aspirin 300 mg/kg oral, 0.6% acetic acid i.p., n=13
  Writhing incubation period: 290.3 ± 37.0 s
[6]; aspirin 300 mg/kg oral, within 15 minutes, n=13
  Frequency of writhing: 15.2 ± 2.9 times
